The source of these data is patent US9051339B2, “Sulfur-containing bicyclic compound” (Astellas Pharma Inc., priority 2013, dated 2015).

For the test, the target named is T1, GABAB receptor (Mus musculus, UniProt Q80T41+Q9WV18).
T1 construct: a mouse brain cortex membrane (4 μg); tissue Japan SLC, Inc. (ddY mice); host or cells: mouse brain cortex membrane
Description: [35S]GTPγS binding test for PAM action, mouse brain cortical membrane. Type of test: biochemical. The conditions noted are these: 100 μM GABA = 100%; for EC50: concentration raising reaction rate from 20% with 0.3 μM GABA to 50%, mouse brain cortex membrane, read-out: Potency (PAM Potency of GABAB); for Emax: read-out: Efficacy (PAM Efficacy of GABAB). The procedure: The function of the GABAB receptor of the compound of the present invention was evaluated using a [^35S] GTPγS binding test. This method is used for the detection of the PAM action of the compound on the GABAB receptor (Journal of Pharmacology and Experimental Therapeutics, 2003, vol. 307(1), p. 322-330; and Molecular Pharmacology, 2001, vol. 60(5), p. 963-971).
The mouse brain cortical membrane was prepared with reference to a method for preparing a rat brain membrane (European Journal of Pharmacology, 1990, vol. 187 (1), p. 27-38).
The cortex (about 30 g) was cut out of the brains of 90 ddY mice (Japan SLC, Inc.). An A buffer was added to the cortex (cortex/A buffer=about 1:3 (wt/vol)), and homogenized with a glass Teflon-lined homogenizer (Teflon: registered trademark) on ice. The homogenate was centrifuged (750 g, 10 min, 4° C.) and a supernatant was then obtained. An A buffer (90 mL) was added to pellets and homogenized on ice, and a supernatant (750 g, 10 min, 4° C.) was then obtained. By repeating this operation, the supernatant was collected.
The supernatant was centrifuged (18000 g, 15 min, 4° C.). Ultrapure water (54 mL) was added to the pellets, left to stand for 30 min on ice, and then centrifuged (39000 g, 20 min, 4° C.). The pellets were suspended in a KH buffer (54 mL), repeatedly frozen and thawed, and centrifuged (18000 g, 15 min) at 4° C. The buffer was added to the pellets and then frozen and thawed, and this operation was repeated until the centrifugation. By a Bradford method using a protein assay (Protein assay CBB solution; Nacalai Tesque, Inc.), a KH buffer suspension of the pellet was prepared at a protein concentration of 10 mg/mL.
The PAM action of the GABAB receptor in the mouse brain cortex of a test drug was evaluated. To each of wells of a 96-well microplate, a test drug diluted with a B buffer at each concentration (3 nM to 30 μM), a mouse brain cortex membrane (4 μg), [^35S] GTPγS (final concentration of 0.34 nM, Muromachi Yakuhin Co., Ltd.; Institute of Isotopes Co., Ltd.), GABA (final concentration of 0.3 μM; Sigma) were added in this order, followed by standing at room temperature for 1 hour. With a harvester (Filtermate, Perkin-Elmer, Inc.), the suspension was suction-filtered through a glass filter (UniFilter 96-well GF/B filter plates, Perkin-Elmer, Inc.). The glass filter was washed with a C buffer that had been ice-cooled. After drying the glass filter, a liquid scintillation cocktail (50 μL, MicroScinti-PS; PerkinElmer, Inc.) was added to each well. The amount of [^35S] GTPγS bound to the membrane was measured on a plate reader (TopCount, PerkinElmer, Inc.).
The maximum reaction rate of 100 μM GABA was taken as 100%. […] At a time when the test drug was not added, the concentration of the test drug that increased the reaction rate from 20% with 0.3 μM GABA to 50% was taken as a PAM Potency (μM) of the GABAB of the test drug. In the presence of 0.3 μM GABA, the maximum reaction rate of the effect on the GABAB receptor when the test drug was administered up to maximum 30 μM was taken as a PAM Efficacy (%) of the GABAB of the test drug.
The Potency and Efficacy of several representative Example Compounds of the present invention are shown in Table below (In the Table, Ex represents Example Compound No. The “Potency” represents the PAM Potency of GABAB of the test drug, and the “Efficacy” represents PAM Efficacy (%) of GABAB of the test drug. These shall apply hereinafter).
A general note: GTPγS is a poorly hydrolysed GTP analogue; its binding reports G protein activation.

Where [1] appears, read: maximum reaction rate in presence of 0.3 μM GABA, test drug up to 30 μM.

SMILES strings stand for the structures. Where a name gives a salt, the structure may show the parent alone.

T1 sequence (Q9WV18 20-960): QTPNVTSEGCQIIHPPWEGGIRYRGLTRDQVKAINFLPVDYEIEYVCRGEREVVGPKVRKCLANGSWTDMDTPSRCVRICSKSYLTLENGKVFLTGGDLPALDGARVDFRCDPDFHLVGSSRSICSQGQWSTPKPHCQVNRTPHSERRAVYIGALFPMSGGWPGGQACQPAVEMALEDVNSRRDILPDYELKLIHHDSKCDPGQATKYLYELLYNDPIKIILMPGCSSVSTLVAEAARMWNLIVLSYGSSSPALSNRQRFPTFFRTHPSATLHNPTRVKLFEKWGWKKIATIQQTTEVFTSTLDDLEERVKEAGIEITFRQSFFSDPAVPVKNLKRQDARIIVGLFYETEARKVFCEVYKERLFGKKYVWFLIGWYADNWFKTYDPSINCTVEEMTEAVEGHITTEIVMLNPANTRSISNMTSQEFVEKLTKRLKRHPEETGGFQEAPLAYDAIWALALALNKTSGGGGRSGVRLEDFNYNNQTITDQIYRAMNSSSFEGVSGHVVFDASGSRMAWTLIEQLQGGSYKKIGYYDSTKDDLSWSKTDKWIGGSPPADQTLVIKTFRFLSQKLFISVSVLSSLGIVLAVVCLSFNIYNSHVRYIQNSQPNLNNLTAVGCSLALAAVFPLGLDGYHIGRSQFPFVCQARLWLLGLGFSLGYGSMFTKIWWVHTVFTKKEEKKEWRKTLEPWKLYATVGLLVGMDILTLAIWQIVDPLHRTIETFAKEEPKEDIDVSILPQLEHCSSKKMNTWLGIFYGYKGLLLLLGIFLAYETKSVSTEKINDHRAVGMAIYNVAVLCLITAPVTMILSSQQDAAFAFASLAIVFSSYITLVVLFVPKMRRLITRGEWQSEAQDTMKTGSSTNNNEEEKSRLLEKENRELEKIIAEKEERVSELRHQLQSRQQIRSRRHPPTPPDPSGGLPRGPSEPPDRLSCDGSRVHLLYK
T1 sequence (Q80T41 41-940): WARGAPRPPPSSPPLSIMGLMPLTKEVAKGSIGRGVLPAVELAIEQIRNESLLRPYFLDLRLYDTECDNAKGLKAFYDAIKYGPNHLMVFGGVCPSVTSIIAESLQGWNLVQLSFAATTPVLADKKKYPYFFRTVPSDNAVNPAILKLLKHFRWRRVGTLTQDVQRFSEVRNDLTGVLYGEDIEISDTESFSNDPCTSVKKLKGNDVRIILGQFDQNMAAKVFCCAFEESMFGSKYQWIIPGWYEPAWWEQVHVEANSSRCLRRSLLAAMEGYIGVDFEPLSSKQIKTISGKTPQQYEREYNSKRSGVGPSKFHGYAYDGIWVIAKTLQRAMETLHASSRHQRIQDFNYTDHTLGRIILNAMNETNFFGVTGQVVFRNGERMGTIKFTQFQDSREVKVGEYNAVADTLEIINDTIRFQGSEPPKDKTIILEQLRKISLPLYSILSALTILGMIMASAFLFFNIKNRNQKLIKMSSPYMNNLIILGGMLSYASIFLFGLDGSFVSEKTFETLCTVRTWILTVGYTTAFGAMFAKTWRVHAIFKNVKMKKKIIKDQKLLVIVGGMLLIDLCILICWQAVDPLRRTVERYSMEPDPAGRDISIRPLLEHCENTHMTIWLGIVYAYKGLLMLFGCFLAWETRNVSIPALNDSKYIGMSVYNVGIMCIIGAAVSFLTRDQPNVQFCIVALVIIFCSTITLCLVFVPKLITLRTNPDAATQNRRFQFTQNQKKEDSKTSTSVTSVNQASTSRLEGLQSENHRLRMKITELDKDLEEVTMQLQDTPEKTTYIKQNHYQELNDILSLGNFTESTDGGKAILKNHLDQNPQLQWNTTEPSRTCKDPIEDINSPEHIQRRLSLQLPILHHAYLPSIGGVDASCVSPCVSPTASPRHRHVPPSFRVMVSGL

Consider `Cc1nc(CN2CC[C@@H](O)[C@](C)(O)C2)c2cc(C3CCC(C)(C)CC3)sc2n1` [Ex104], for which the EC50 was 79 nM. Moreover, the Emax under setting [1] was 218%.

For `Cc1nc(CN2CC[C@@H](O)[C@H](O)C2)c2cc(C3CCC(C)(C)CC3)sc2n1` [Ex5], the EC50 came out at 240 nM. Moreover, the Emax under setting [1] turned out to be 176%.

For the compound `Cc1nc(CN2CCN(C(=O)CO)CC2(C)C)c2cc(C3CCC(C)(C)CC3)sc2n1` [Ex155, 1-(4-{[6-(4,4-dimethylcyclohexyl)-2-methylthieno[2,3-d]pyrimidin-4-yl]methyl}-3,3-dimethylpiperazin-1-yl)-2-hydroxyethanone], the EC50 was found to be 46 nM. Further, the Emax under setting [1] turned out to be 159%.

In the case of `Cc1nc(CN2CC[C@@H](O)[C@@H](O)C2)c2cc(C3CCC(C)(C)CC3)sc2n1` [Ex54], the EC50 worked out at 320 nM. For the same compound, the Emax under setting [1] was 88%.

Consider `Cc1nc(CN2CCC(O)C(C)(C)C2)c2cc(C3CCC(C)(C)CC3)sc2n1` (stereo not drawn) [Ex146], for which the EC50 is 100 nM. Also, the Emax under setting [1] was found to be 258%.

Consider `Cc1nc(CN2CCC(O)C(CO)C2)c2cc(C3CCC(C)(C)CC3)sc2n1` (stereo not drawn) [Ex127], for which the EC50 was 110 nM. Under setting [1], the Emax turned out to be 338%.

On to `Cc1nc(CN2CCC(O)C(F)C2)c2cc(C3CCC(C)(C)CC3)sc2n1` (stereo not drawn) [Ex51], for which the EC50 is 150 nM. For the same compound, the Emax under setting [1] is 249%.

Turning to `Cc1nc(CN2CCC(F)(F)CC2)c2cc(C3CCC(C)(C)CC3)sc2n1` [Ex55], the EC50 stood at 250 nM. The Emax under setting [1] stood at 175%.

As for `CCC1(O)CCN(Cc2nc(C)nc3sc(C4CCC(C)(C)CC4)cc23)CC1` [Ex48], the EC50 is 260 nM. Further, the Emax under setting [1] is 238%.

`Cc1nc(CN2CC[C@@H](O)[C@H](O)C2)c2cc(C3CCC(C)(C)CC3)sc2n1` (single isomer, unassigned) [Ex31-1, trans-1-{[6-(4,4-dimethylcyclohexyl)-2-methylthieno[2,3-d]pyrimidin-4-yl]methyl}piperidine-3,4-diol]: the EC50 was 180 nM. The “Efficacy (PAM Efficacy of GABAB)” value under setting [1] is on record as 191%.

Turning to `Cc1nc(CN2CCC(CO)(CO)CC2)c2cc(C3CCC(C)(C)CC3)sc2n1` [Ex7], the EC50 is 240 nM. Besides, the Emax under setting [1] was 139%.

For `Cc1nc(CN2CCC(C(F)F)CC2)c2cc(C3CCC(C)(C)CC3)sc2n1` [Ex61], the EC50 turned out to be 240 nM. Besides, the Emax under setting [1] was 160%.

Turning to `Cc1nc(CN2CCC(O)CC2)c2cc(C3CCC(C)(C)CC3)sc2n1` [Ex52, 1-{[6-(4,4-dimethylcyclohexyl)-2-methylthieno[2,3-d]pyrimidin-4-yl]methyl}piperidin-4-ol hydrochloride], the EC50 came out at 170 nM. Moreover, the Emax under setting [1] is 259%.

With `Cc1nc(CN2CCOC[C@@H]2CO)c2cc(C3CCC(C)(C)CC3)sc2n1` [Ex102], the EC50 was 400 nM. The Emax under setting [1] was 127%.

As to `Cc1nc(CN2CCC(C)(C)CC2)c2cc(C3CCC(C)(C)CC3)sc2n1` [Ex44], the EC50 is 270 nM. For the same compound, the Emax under setting [1] came to 119%.

Take `Cc1nc(CN2CCOC(C)(C)C2)c2cc(C3CCC(C)(C)CC3)sc2n1` [Ex40]: the EC50 is 530 nM. For the same compound, the Emax under setting [1] was determined as 203%.

Take `COCC1(O)CCN(Cc2nc(C)nc3sc(C4CCC(C)(C)CC4)cc23)CC1` [Ex50]: the EC50 came to 540 nM. The Emax under setting [1] is 222%.

`Cc1nc(CN2CCN(C)CC2(C)C)c2cc(C3CCC(C)(C)CC3)sc2n1` [Ex151]: the EC50 is 120 nM. In addition, under setting [1], the Emax was 168%.

For `Cc1nc(CN2CCC3(CC2)CC3)c2cc(C3CCC(C)(C)CC3)sc2n1` [Ex43], the EC50 was found to be 260 nM. Besides, under setting [1], the Emax was 118%.

As for `Cc1nc(CN2CCOC[C@H]2CO)c2cc(C3CCC(C)(C)CC3)sc2n1` [Ex101], the EC50 worked out at 380 nM. The Emax under setting [1] is 134%.

With `COC1(CO)CCN(Cc2nc(C)nc3sc(C4CCC(C)(C)CC4)cc23)CC1` [Ex46], the EC50 worked out at 180 nM. Also, the Emax under setting [1] was found to be 188%.

For `Cc1nc(CN2CCOCC2(C)C)c2cc(C3CCC(C)(C)CC3)sc2n1` [Ex79], the EC50 was determined as 46 nM. Besides, the Emax under setting [1] stood at 230%.

In the case of `Cc1nc(CN2CCC(O)CC2(C)C)c2cc(C3CCC(C)(C)CC3)sc2n1` (stereo not drawn) [Ex142], the EC50 was 7.1 nM. Moreover, under setting [1], the Emax came to 214%.

Regarding `CC(=O)N1CCN(Cc2nc(C)nc3sc(C4CCC(C)(C)CC4)cc23)C(C)(C)C1` [Ex153, 1-(4-{[6-(4,4-dimethylcyclohexyl)-2-methylthieno[2,3-d]pyrimidin-4-yl]methyl}-3,3-dimethylpiperazin-1-yl)ethanone hydrochloride], the EC50 was determined as 59 nM. For the same compound, under setting [1], the Emax came to 180%.

Regarding `Cc1nc(CN2CCOCC2)c2cc(C3CCC(C)(C)CC3)sc2n1` [Ex132], the EC50 stood at 150 nM. Besides, under setting [1], the Emax is 218%.

For the compound `Cc1nc(CN2CCC(O)(CO)CC2)c2cc(C3CCC(C)(C)CC3)sc2n1` [Ex4], the EC50 was 200 nM. In addition, the Emax under setting [1] turned out to be 161%.

As for `Cc1nc(CN2C[C@@H](C)O[C@@H](C)C2)c2cc(C3CCC(C)(C)CC3)sc2n1` [Ex39], the EC50 was 420 nM. Moreover, under setting [1], the Emax is 165%.

As to `Cc1nc(CN2CCCC(C)(C)C2)c2cc(C3CCC(C)(C)CC3)sc2n1` [Ex45], the EC50 was 440 nM. In addition, the Emax under setting [1] came out at 134%.

For the compound `Cc1nc(CN2CCC[C@H](O)C2)c2cc(C3CCC(C)(C)CC3)sc2n1` [Ex73], the EC50 amounted to 85 nM. Moreover, under setting [1], the Emax stood at 272%.

`Cc1nc(CN2CCS(=O)(=O)CC2)c2cc(C3CCC4(CC3)CC4)sc2n1` [Ex108, 4-[(1,1-dioxidothiomorpholin-4-yl)methyl]-2-methyl-6-(spiro[2.5]octa-6-yl)thieno[2,3-d]pyrimidine]: the EC50 was found to be 200 nM. Also, the Emax under setting [1] worked out at 176%.

For the compound `Cc1nc(CN2CCSCC2)c2cc(C3CCC(C)(C)CC3)sc2n1` [Ex74], the EC50 was found to be 190 nM. The Emax under setting [1] was found to be 244%.

`Cc1nc(CN2CCC(O)(C(F)(F)F)CC2)c2cc(C3CCC(C)(C)CC3)sc2n1` [Ex12]: the EC50 turned out to be 230 nM. Besides, the Emax under setting [1] was 377%.

In the case of `Cc1nc(CN2CCC(C)(O)CC2)c2cc(C3CCC(C)(C)CC3)sc2n1` [Ex47], the EC50 came to 120 nM. Further, the Emax under setting [1] stood at 240%.

For the compound `Cc1nc(CN2CCC[C@@H](O)C2)c2cc(C3CCC(C)(C)CC3)sc2n1` [Ex72], the EC50 is 89 nM. Moreover, the Emax under setting [1] was found to be 289%.

Turning to `Cc1nc(CN2CC[C@@H](O)[C@@H](F)C2)c2cc(C3CCC(C)(C)CC3)sc2n1` [Ex143], the EC50 is 1200 nM. In addition, under setting [1], the Emax was determined as 182%.

On to `Cc1nc(CN2CC[C@H](O)[C@@H](F)C2)c2cc(C3CCC(C)(C)CC3)sc2n1` [Ex144], for which the EC50 stood at 310 nM. In addition, under setting [1], the Emax stood at 182%.
